# Values of other authors, collected in US20090047371A1, “PHARMACEUTICAL COMPOSITION COMPRISING CURCUMIN AND RESVERATROL AND USES THEREOF IN MEDICAL FIELD” (SAFI INVESTMENT HOLDING AG, priority 2005, published 2009).
# System: hair loss
# Conditions: many cases in India and in Europe where Curcumin has been employed
compound,measurement,value
"COc1cc(/C=C/C(=O)CC(=O)/C=C/c2ccc(O)c(OC)c2)ccc1O [Curcumin, curcumin]",effect on hair,any effect on hair has never been reported
